Laboratory results reported in US8236143B2, “Controlling chemical reactions by spectral chemistry and spectral conditioning” (GR Intellectual Reserve, LLC, priority 2002, dated 2012).

Assays:
[1] = Sucrose solubility in sodium-lamp conditioned vs control water at room temperature (22° C.); assay type: physicochemical
Procedure: Beaker “II” was placed under another sodium lamp 12 as like Beaker “KK”; and Beaker “JJ” was placed in the same incubator as Beaker “LL”. […] Specifically, Beaker “GG” was placed under another sodium lamp 12 as like Beaker “KK” and Beaker “II”; and Becker “HH” was placed into the same incubator as Beaker “LL” and “II”.

[2] = Phenyl salicylate solubility in neon-lamp conditioned vs unconditioned acetone at room temperature; assay type: physicochemical; conditions: about 20 hours equilibration
Procedure: Acetone (about 1 ml) was pipetted into small glass test tubes and stoppers placed in the tube. Tubes were placed under a neon lam; (about 8m/cm^2) in an otherwise dark room for about 1-5 hours at about 28° C. ambient temperature. Tubes were also placed simultaneously in an incubator at 28° C. for about 1.5 hours.
Phenyl solicylate (about 3.50 grams) was added to each tube leaving a layer undissolved on the bottom of each tube. The solutions were allowed to equilibrate (about 20 hours). Solution was filtered over the crystals and 0.500 ml pipetted into fresh tubes.
After the acetone evaporated, dry weights of phenyl solicylate per ml dissolved in conditioned and unconditioned acetone were determined.

OC[C@H]1O[C@@](CO)(O[C@H]2O[C@H](CO)[C@@H](O)[C@H](O)[C@H]2O)[C@@H](O)[C@@H]1O [Sucrose]
Weight (dry sucrose weight per 100 ml solution) ([1]; Beaker GG, water under sodium lamp one hour, solution at 23.5° C.): 49 g/100 ml | Weight (dry sucrose weight per 100 ml solution) ([1]; Beaker HH, control water 1 hour in incubator, solution at 23° C.): 49 g/100 ml | Weight (dry sucrose weight per 100 ml solution) ([1]; Beaker II, water under sodium lamp two hours, solution at 23.5° C.): 47 g/100 ml | Weight (dry sucrose weight per 100 ml solution) ([1]; Beaker JJ, control water 2 hours in incubator, solution at 23.5° C.): 44 g/100 ml | Weight (dry sucrose weight per 100 ml solution) ([1]; Beaker KK, water under Na lamp three hours, solution at 23.5° C.): 46 g/100 ml | Weight (dry sucrose weight per 100 ml solution) ([1]; Beaker LL, control water 3 hours in incubator, solution at 23.5° C.): 49 g/100 ml | more sucrose dissolved by conditioned water than by untreated control water ([1]; two hours exposure of water to the sodium lamp): about 7%

O=C(Oc1ccccc1)c1ccccc1O [phenyl salicylate]
Average amount of phenyl salicylate dissolved ([2]; acetone conditioned under neon lamp): 0.78 g/mL | Average amount of phenyl salicylate dissolved ([2]; unconditioned acetone (incubator 28° C.)): 0.68 g/mL
